From paper PMC9833666, “Designing and identifying β-hairpin peptide macrocycles with antibiotic potential” (Science Advances, 2023)
Bridge positions count the residues as written; N and C are the ends. Peptide text beside a SMILES is read from it.

Test system: Escherichia coli W3110
Assay type: cell-based
Conditions: for Ec W3110 MIC MH: E. coli W3110, MH medium; for Ec W3110 MIC RPMI: E. coli W3110, RPMI medium

| SMILES | Ec W3110 MIC MH [µg/mL] | Ec W3110 MIC RPMI [µg/mL] | W3110 MIC MH [µg/mL] | W3110 MIC RPMI [µg/mL] | W3110 MIC [µg/mL] |
| --- | --- | --- | --- | --- | --- |
| CC[C@H](C)[C@@H]1NC(=O)[C@H](CCCCN)NC(=O)[C@H](CC(C)C)NC(=O)CNC(=O)[C@H](CCCNC(=N)N)NC(=O)[C@H](CCCNC(=N)N)NC(=O)[C@H](CCCNC(=N)N)NC(=O)[C@H](CC(N)=O)NC(=O)[C@H](CC(N)=O)NC(=O)[C@H](CC(C)C)NC(=O)[C@H](CCCNC(=N)N)NC(=O)[C@H](C(C)C)NC(=O)[C@H](CCCNC(=N)N)NC(=O)[C@H](C(C)C)NC(=O)[C@@H](N)CSSC[C@@H](C(=O)O)NC(=O)[C@H](C(C)C)NC(=O)[C@H](CCC(N)=O)NC(=O)[C@H](CC(C)C)NC(=O)[C@H]([C@@H](C)O)NC1=O [SySA-88] (H-CVRVRLNNRRRGLKITLQVC-OH; disulfide 1-20; N-terminus and C-terminus assumed) | 32 | 8 | 32 | 8 |  |
| CC[C@H](C)[C@@H]1NC(=O)[C@H](CCCCN)NC(=O)[C@H](C(C)C)NC(=O)[C@H](CCCNC(=N)N)NC(=O)[C@H](CO)NC(=O)[C@H](CCCNC(=N)N)NC(=O)[C@H](CCCNC(=N)N)NC(=O)[C@H](CC(N)=O)NC(=O)[C@H](CC(=O)O)NC(=O)[C@H](C(C)C)NC(=O)[C@H](CCCNC(=N)N)NC(=O)[C@H]([C@@H](C)CC)NC(=O)[C@H]([C@@H](C)O)NC(=O)[C@H](CC(C)C)NC(=O)[C@@H](N)CSSC[C@@H](C(=O)O)NC(=O)[C@H](C(C)C)NC(=O)[C@H](CCC(=O)O)NC(=O)[C@H](CC(C)C)NC(=O)[C@H]([C@@H](C)O)NC1=O [SyRA-4] (H-CLTIRVDNRRSRVKITLEVC-OH; disulfide 1-20) |  |  |  |  | >256 |
| CC[C@H](C)[C@@H]1NC(=O)[C@H](CCCNC(=N)N)NC(=O)[C@H](C(C)C)NC(=O)[C@H](CCCNC(=N)N)NC(=O)[C@H](CO)NC(=O)[C@H](CCCNC(=N)N)NC(=O)[C@H](CCCNC(=N)N)NC(=O)[C@H](CC(N)=O)NC(=O)[C@H](CC(N)=O)NC(=O)[C@H](C(C)C)NC(=O)[C@H](CCCNC(=N)N)NC(=O)[C@H]([C@@H](C)CC)NC(=O)[C@H]([C@@H](C)O)NC(=O)[C@H](C(C)C)NC(=O)[C@@H](N)CSSC[C@@H](C(=O)O)NC(=O)[C@H](C(C)C)NC(=O)[C@H](CCC(N)=O)NC(=O)[C@H](CC(C)C)NC(=O)[C@H](CO)NC1=O [SySA-63] (H-CVTIRVNNRRSRVRISLQVC-OH; disulfide 1-20; N-terminus and C-terminus assumed) | 256 | 64 | 256 | 64 |  |
| CC[C@H](C)[C@@H]1NC(=O)[C@H](CCCNC(=N)N)NC(=O)[C@H](C(C)C)NC(=O)CNC(=O)[C@H](CO)NC(=O)CNC(=O)CNC(=O)[C@H](CC(=O)O)NC(=O)[C@H](CC(N)=O)NC(=O)[C@H](CC(C)C)NC(=O)[C@H](CCCNC(=N)N)NC(=O)[C@H](C(C)C)NC(=O)[C@H](CCCNC(=N)N)NC(=O)[C@H](C(C)C)NC(=O)[C@@H](N)CSSC[C@@H](C(=O)O)NC(=O)[C@H](C(C)C)NC(=O)[C@H](CCC(N)=O)NC(=O)[C@H](C(C)C)NC(=O)[C@H](CO)NC1=O [SyRA-6] (H-CVRVRLNDGGSGVRISVQVC-OH; disulfide 1-20) |  |  |  |  | >256 |
| CC[C@H](C)[C@@H]1NC(=O)[C@H](CCCNC(=N)N)NC(=O)[C@H](CC(C)C)NC(=O)[C@@H](N)CSSC[C@@H](C(=O)O)NC(=O)[C@H](C(C)C)NC(=O)[C@H](CCC(N)=O)NC(=O)[C@H](C(C)C)NC(=O)[C@H]([C@@H](C)O)NC(=O)[C@H]([C@@H](C)CC)NC(=O)[C@H](CCCNC(=N)N)NC(=O)[C@H](C(C)C)NC(=O)CNC(=O)CNC(=O)[C@H](CCCNC(=N)N)NC(=O)[C@H](CCCNC(=N)N)NC(=O)[C@H](CC(N)=O)NC(=O)[C@H](CC(N)=O)NC(=O)[C@H](C(C)C)NC(=O)[C@H](CCCNC(=N)N)NC1=O [SyRA-2] (H-CLRIRVNNRRGGVRITVQVC-OH; disulfide 1-20) |  |  |  |  | >256 |
| CC[C@H](C)[C@@H]1NC(=O)[C@H]([C@@H](C)O)NC(=O)[C@H](CC(C)C)NC(=O)[C@@H](N)CSSC[C@@H](C(=O)O)NC(=O)[C@H](C(C)C)NC(=O)[C@H](CCC(=O)O)NC(=O)[C@H](C(C)C)NC(=O)[C@H](CO)NC(=O)[C@H](C(C)C)NC(=O)[C@H](CCCCN)NC(=O)[C@H](C(C)C)NC(=O)[C@H](CCCNC(=N)N)NC(=O)[C@H](CO)NC(=O)[C@H](CCCNC(=N)N)NC(=O)[C@H](CCCNC(=N)N)NC(=O)[C@H](CC(=O)O)NC(=O)[C@H](CC(=O)O)NC(=O)[C@H](CC(C)C)NC(=O)[C@H](CCCNC(=N)N)NC1=O [SyRA-1] (H-CLTIRLDDRRSRVKVSVEVC-OH; disulfide 1-20) |  |  |  |  | >256 |
| CC[C@H](C)[C@@H]1NC(=O)[C@H](CCCCN)NC(=O)[C@H]([C@@H](C)CC)NC(=O)[C@H](CCCNC(=N)N)NC(=O)[C@@H](N)CSSC[C@@H](C(=O)O)NC(=O)[C@H](CCC(N)=O)NC(=O)[C@H](C(C)C)NC(=O)[C@H](CCC(N)=O)NC(=O)[C@H](CC(C)C)NC(=O)[C@H](CCCCN)NC(=O)[C@H](CC(C)C)NC(=O)[C@H](CCCNC(=N)N)NC(=O)[C@H](CCCNC(=N)N)NC(=O)[C@H](CO)NC(=O)CNC(=O)[C@H](CC(=O)O)NC(=O)[C@H](CC(N)=O)NC(=O)[C@H](C(C)C)NC(=O)[C@H](CC(N)=O)NC1=O [SySA-8] (H-CRIKINVNDGSRRLKLQVQC-OH; disulfide 1-20; N-terminus and C-terminus assumed) | 256 | 256 | 256 | 256 |  |
| CC[C@H](C)[C@@H]1NC(=O)[C@H](CCCNC(=N)N)NC(=O)[C@H](C(C)C)NC(=O)[C@H](CCCNC(=N)N)NC(=O)[C@@H](N)CSSC[C@@H](C(=O)O)NC(=O)[C@H](CCC(N)=O)NC(=O)[C@H](C(C)C)NC(=O)[C@H](CCC(N)=O)NC(=O)[C@H](CC(C)C)NC(=O)[C@H](CCCNC(=N)N)NC(=O)[C@H](C(C)C)NC(=O)[C@H]([C@@H](C)O)NC(=O)CNC(=O)[C@H](CO)NC(=O)CNC(=O)[C@H](CC(=O)O)NC(=O)[C@H](CC(N)=O)NC(=O)[C@H](C(C)C)NC(=O)[C@H](CC(N)=O)NC1=O [SyRC-10] (H-CRVRINVNDGSGTVRLQVQC-OH; disulfide 1-20) |  |  |  |  | >256 |
| CC[C@H](C)[C@@H]1NC(=O)[C@H](CCCNC(=N)N)NC(=O)[C@H](C(C)C)NC(=O)[C@H](CCCNC(=N)N)NC(=O)[C@@H](N)CSSC[C@@H](C(=O)O)NC(=O)[C@H](CCC(=O)O)NC(=O)[C@H](C(C)C)NC(=O)[C@H](CCC(N)=O)NC(=O)[C@H](CC(C)C)NC(=O)[C@H](CCCCN)NC(=O)[C@H](CC(C)C)NC(=O)[C@H](CCCNC(=N)N)NC(=O)CNC(=O)[C@H](CCCNC(=N)N)NC(=O)[C@H](CCCNC(=N)N)NC(=O)[C@H](CC(=O)O)NC(=O)[C@H](CC(=O)O)NC(=O)[C@H](C(C)C)NC(=O)[C@H](CC(N)=O)NC1=O [SyRC-1] (H-CRVRINVDDRRGRLKLQVEC-OH; disulfide 1-20) |  |  |  |  | >256 |
